According to US11926841B2, “AAV-based conditional expression system” (priority 2016, dated 2024):

Key:
Type in all cases: cell-based
[1] = system: ACV sensitive HSV-1 laboratory strain; assay: Endpoint dilution assay (TCID50) of supernatants of ACV treated infected LE2D8 cells, sensitive HSV-1; details: ACV 1, 6, 12, 48 and 96 μg/ml; counts at day 7
Excerpt: (§1) For the validation of the new established replicon based assay we made an endpoint-dilution-assay to monitor the amount of the produced viruses in presence of the ACV treatment. This standardised assay for detection of viral growth is very sensitive but very time consuming since 5-7 days are required to obtain the results. To test the virus production in our assay condition with the standard method the sensitive and ACV-resistant HSV-1 containing assay supernatants of the infected LE2D8 cells treated with different concentrations of ACV (n.t., 1, 6, 12, 48 and 96 μg/ml) were collected. Subsequently endpoint dilution assays were performed using HEK-cells in a 96 well plate format. The Tissue Culture Infection Dose 50 (TCID50) was calculated after collecting the infectivity counts at day 7 (FIG. 5B).

ACV-resistant HSV-1 = assay: Endpoint dilution assay (TCID50) of supernatants of ACV treated infected LE2D8 cells, resistant HSV-1; details: ACV 1, 6, 12, 48 and 96 μg/ml; counts at day 7
Excerpt: as §1

[2] = system: ACV sensitive HSV-2 isolate; assay: AAV replicon based resistance test with clinical HSV-2 isolates, sensitive isolate; details: ACV 20 μM and higher; LE2D8 cells; 48 hpi
Protocol: (§2) For testing the single HSV-2 virus isolates, LE2D8 were seeded to 3.3×10^4 cells in a 96 well format, 2 hours before treatment with 0.8, 4, 20, 100 and 500 μM ACV and infection with 1:10 diluted HSV-2 isolates, always using technical triplicates. After 48 hpi, GLuc activity in the supernatant was measured by luminometry and values were compared to non-treated and mock infected cells as above. In FIGS. 6A and 6B we show example of the replicon response induced by an ACV sensitive HSV2- and one of an ACV resistant HSV-2 isolate.

[3] = system: wild type ACV sensitive HSV-1 laboratory strain; assay: AAV replicon based ACV resistance test in LE2D8 cells (GLuc luciferase readout), sensitive HSV-1; details: ACV 6-12 μg/mi, MOI 0.035, 48 hpi
Protocol: The cell line LE2D8 was seeded onto 96-well-plates at density of 3.3×10^4 cell/well. Two hours after seeding the cells were left untreated or were treated with different concentrations of ACV (CAS: 59277-89-3) (ranging from 0.05 to 144 μg/ml). Right after treatment the cells were infected with either a wild type ACV sensitive HSV-1 laboratory strain or an ACV resistant strain (kindly provided from Dr. Gundula Jäger, Max von Pettenkofer-Institute, LMU Munich) using an MOI of 0.035. After only 48 hpi luciferase activity in 20 μl of the supernatant was measured as the previous experiments. The luciferase activities of the ACV treated cells were compared to the luciferase activities obtained after infection of the non-treated cells. The luciferase induction of the non-treated cells was set 100% and the activity of the ACV treated cells was depicted as % of the non-treated values (FIG. 5A).

[4] = system: ACV resistant HSV-2 isolate; assay: AAV replicon based resistance test with clinical HSV-2 isolates, resistant isolate; details: ACV 0.8, 4, 20, 100 and 500 μM; LE2D8 cells; 48 hpi
Protocol: as §2

SMILES: Nc1nc2c(ncn2COCCO)c(=O)[nH]1 [ACV, Aciclovir]
- virus replication under ACV treatment (TCID50, endpoint dilution) [1]: indeed inhibited by ACV treatment
- virus replication under ACV treatment (TCID50, endpoint dilution) (ACV-resistant HSV-1): could not inhibit the replication
- GLuc activity compared to non-treated cells [2]: decreasing amounts of GLuc activity
- luciferase activity, % of non-treated cells [3]: 20%
- GLuc induction, % of the non-treated values [4]: ≥ 50%
